Experimental data published in patent publication US9238656B2, “Imidazo[4,5-b]pyridine derivatives as ALK and JAK modulators for the treatment of proliferative disorders” (priority 2012, dated 2016).
Structures can show the parent of a compound that is named as a salt.

Columns and labels:
[1] = target: baculovirus-expressed ALK (Homo sapiens, UniProt Q9UM73); assay: ALK kinase inhibition, TRF/ELISA; type: biochemical; details: read-out: ALK Potency
Protocol: Briefly, each 96-well plate was coated with 100 μL/well of 10 μg/mL substrate (GST-PLC-γ) in Tris-buffered saline (TBS). […] The reaction was initiated by adding enzyme (30 ng/mL ALK) and was allowed to proceed at 37° C. for 15 minutes. Detection of the phosphorylated product was performed by adding 100 μL/well of Eu-N1 labeled PT66 antibody (Perkin Elmer #AD0041). […] Data analysis was performed using ActivityBase (IDBS, Guilford, UK). IC50 values were calculated by plotting percent inhibition versus log10 of the concentration of compound and fitting to the nonlinear regression sigmoidal dose-response (variable slope) equation in XLFit (IDBS, Guilford, UK).

[2] = target: baculovirus-expressed JAK2 kinase (Homo sapiens, UniProt O60674); assay: biochemical; details: 0.2 μM ATP; read-out: JAK2 Potency
Protocol: Compounds were tested for their ability to inhibit the kinase activity of baculovirus-expressed JAK2 kinase using the time-resolved fluorescence (TRF) detection system. […] The plates were coated with 100 μL/well of 10 μg/mL Neutravidin (Pierce #31000, Rockford, Ill.) in TBS at 37° C. for 2 h, followed by 100 μL/well of 1 μg/mL 15-mer peptide substrate (biotinyl-amino-hexanoyl-[…]-amide, Infinity Biotech Research and Resource, Aston, Pa.) at 37° C. for 1 h. […] Enzyme (15 ng/mL JAK2) was added and the reaction was allowed to proceed at room temperature for 20 min. […] Inhibition data were analyzed using ActivityBase (IDBS, Guilford, UK). IC50 values were calculated by plotting percent inhibition versus log10 of the concentration of compound and fitting to the nonlinear regression sigmoidal dose-response (variable slope) equation in XLFit (IDBS, Guilford, UK).

baculovirus-expressed JAK2 kinase, sequence (O60674 whole entry): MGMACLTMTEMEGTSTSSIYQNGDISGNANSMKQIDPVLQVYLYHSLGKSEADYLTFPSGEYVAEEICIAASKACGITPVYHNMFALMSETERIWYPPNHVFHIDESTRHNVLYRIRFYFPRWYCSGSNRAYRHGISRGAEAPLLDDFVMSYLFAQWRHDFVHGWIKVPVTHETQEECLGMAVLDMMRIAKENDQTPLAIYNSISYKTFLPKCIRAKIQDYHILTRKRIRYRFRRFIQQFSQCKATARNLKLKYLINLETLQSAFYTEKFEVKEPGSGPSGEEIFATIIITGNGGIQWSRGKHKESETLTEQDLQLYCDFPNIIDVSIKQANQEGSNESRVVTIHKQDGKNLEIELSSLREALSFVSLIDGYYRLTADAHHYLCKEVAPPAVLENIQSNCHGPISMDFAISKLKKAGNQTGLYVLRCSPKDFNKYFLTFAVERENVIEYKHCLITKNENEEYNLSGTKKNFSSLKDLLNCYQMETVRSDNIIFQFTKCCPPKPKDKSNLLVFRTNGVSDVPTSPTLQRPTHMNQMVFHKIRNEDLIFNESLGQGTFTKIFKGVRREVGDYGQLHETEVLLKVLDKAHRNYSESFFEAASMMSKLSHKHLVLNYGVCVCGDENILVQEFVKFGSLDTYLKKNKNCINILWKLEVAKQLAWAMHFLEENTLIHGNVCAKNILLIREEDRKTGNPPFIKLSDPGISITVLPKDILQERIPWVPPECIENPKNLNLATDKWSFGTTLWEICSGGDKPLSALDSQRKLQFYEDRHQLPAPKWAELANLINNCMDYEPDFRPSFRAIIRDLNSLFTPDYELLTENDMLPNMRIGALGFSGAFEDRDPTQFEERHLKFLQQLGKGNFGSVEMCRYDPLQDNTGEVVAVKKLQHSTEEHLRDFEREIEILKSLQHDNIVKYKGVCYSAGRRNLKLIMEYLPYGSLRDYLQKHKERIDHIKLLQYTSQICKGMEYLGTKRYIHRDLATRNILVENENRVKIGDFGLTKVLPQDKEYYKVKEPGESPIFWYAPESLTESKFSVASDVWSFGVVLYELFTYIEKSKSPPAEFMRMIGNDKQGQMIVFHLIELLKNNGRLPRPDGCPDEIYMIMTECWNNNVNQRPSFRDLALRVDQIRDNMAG
baculovirus-expressed ALK, sequence (Q9UM73 19-1620): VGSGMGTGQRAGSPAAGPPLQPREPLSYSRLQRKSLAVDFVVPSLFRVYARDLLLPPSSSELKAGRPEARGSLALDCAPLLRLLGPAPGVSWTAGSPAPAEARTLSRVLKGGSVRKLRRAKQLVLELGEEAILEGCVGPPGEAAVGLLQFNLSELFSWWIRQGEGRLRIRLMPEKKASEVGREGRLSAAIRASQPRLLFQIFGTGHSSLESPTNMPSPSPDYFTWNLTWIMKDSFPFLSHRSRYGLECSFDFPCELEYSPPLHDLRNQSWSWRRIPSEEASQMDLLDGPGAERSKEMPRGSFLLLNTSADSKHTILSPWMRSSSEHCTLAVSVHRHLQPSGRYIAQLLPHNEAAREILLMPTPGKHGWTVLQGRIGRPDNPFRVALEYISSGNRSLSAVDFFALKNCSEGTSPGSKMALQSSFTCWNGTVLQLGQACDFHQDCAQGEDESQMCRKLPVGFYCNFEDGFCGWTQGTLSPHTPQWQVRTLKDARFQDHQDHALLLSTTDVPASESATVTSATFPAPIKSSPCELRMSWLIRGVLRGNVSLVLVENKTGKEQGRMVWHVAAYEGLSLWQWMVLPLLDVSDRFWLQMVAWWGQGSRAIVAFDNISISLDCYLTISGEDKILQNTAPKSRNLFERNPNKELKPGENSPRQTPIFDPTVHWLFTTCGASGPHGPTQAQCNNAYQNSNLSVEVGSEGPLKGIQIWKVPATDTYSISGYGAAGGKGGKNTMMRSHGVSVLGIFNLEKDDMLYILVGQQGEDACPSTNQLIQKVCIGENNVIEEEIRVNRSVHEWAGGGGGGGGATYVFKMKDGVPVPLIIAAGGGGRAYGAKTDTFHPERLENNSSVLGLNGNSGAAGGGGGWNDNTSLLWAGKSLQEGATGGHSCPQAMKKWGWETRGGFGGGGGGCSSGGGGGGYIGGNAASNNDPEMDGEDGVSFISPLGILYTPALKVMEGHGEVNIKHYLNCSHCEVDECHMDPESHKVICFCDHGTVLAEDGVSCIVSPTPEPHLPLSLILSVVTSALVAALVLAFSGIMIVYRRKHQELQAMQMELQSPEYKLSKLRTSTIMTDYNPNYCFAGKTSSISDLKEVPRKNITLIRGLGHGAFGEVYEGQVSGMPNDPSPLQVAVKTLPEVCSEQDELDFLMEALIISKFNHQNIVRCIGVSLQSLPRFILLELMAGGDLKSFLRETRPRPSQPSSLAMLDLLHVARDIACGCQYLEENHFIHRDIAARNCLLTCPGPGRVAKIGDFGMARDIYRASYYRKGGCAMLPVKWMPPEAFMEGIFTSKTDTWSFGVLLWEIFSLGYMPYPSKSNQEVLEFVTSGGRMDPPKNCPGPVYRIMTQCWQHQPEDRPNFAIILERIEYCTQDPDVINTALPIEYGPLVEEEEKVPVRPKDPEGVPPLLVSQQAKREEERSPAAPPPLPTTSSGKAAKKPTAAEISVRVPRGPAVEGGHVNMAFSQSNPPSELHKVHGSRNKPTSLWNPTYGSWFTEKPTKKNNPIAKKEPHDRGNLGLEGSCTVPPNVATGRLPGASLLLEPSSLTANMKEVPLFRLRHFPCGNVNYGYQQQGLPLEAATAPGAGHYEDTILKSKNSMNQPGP

Row | Structure (SMILES) | IC50 [1] [nM] | IC50 [2] [nM]
1 | NC(=O)[C@@H]1[C@H](Nc2c(Cl)cnc3[nH]c(-c4ccc(C(=O)O)cc4)nc23)[C@H]2C=C[C@@H]1C2 [Compound CCXVIII, 4-(7-((1R,2R,3S,4S)-3-carbamoylbicyclo[2.2.1]hept-5-en-2-ylamino)-6-chloro-3H-imidazo[4,5-b]pyridin-2-yl)benzoic acid] | 100 to 1000 | < 100
2 | NC(=O)[C@@H]1[C@H](Nc2c(Cl)cnc3[nH]c(-c4cccnc4N4CCOCC4)nc23)[C@H]2C=C[C@@H]1C2 [Compound XXXIV, (1S,2S,3R,4R)-3-[6-Chloro-2-(2-morpholin-4-yl-pyridin-3-yl)-3H-imidazo[4,5-b]pyridine-7-ylamino]-bicyclo[2.2.1]hept-5-ene-2-carboxylic acid amide] | 1000 to 10000 | > 10000
3 | CN1CCN(Cc2ccc(-c3nc4c(N[C@@H]5CCCC[C@H]5NS(C)(=O)=O)c(Cl)cnc4[nH]3)cc2)CC1 [CCLIV, N-((1R,2R)-2-{6-Chloro-2-[4-(4-methyl-piperazin-1-ylmethyl)-phenyl]-3H-imidazo[4,5-b]pyridin-7-ylamino}-cyclohexyl)-methanesulfonamide] | < 100 | < 100
4 | CNC(=O)[C@@H]1[C@H](Nc2c(Cl)cnc3[nH]c(-c4ccc(N5CCOCC5)cc4)nc23)[C@H]2C=C[C@@H]1C2 [Compound CLXXVIII, (1S,2S,3R,4R)-3-(6-chloro-2-(4-morpholinophenyl)-3H-imidazo[4,5-b]pyridin-7-ylamino)-N-methylbicyclo[2.2.1]hept-5-ene-2-carboxamide] | < 100 | < 100
5 | O=C(NC1CC1)[C@@H]1[C@H](Nc2c(Cl)cnc3[nH]c(-c4sc(N5CCCC5)nc4Cl)nc23)[C@H]2C=C[C@@H]1C2 [Compound CLXXII, (1S,2S,3R,4R)-3-[6-Chloro-2-(4-chloro-2-pyrrolidin-1-yl-thiazol-5-yl)-3H-imidazo[4,5-b]pyridin-7-ylamino]-bicyclo[2.2.1]hept-5-ene-2-carboxylic acid cyclopropylamide] | < 100 | 100 to 1000
6 | NC(=O)[C@@H]1[C@H](Nc2c(Cl)cnc3[nH]c(-c4ccccc4F)nc23)[C@H]2C=C[C@@H]1C2 [Compound CXXVII, (1S,2S,3R,4R)-3-[6-Chloro-2-(2-fluoro-phenyl)-3H-imidazo[4,5-b]pyridin-7-ylamino]-bicyclo[2.2.1]hept-5-ene-2-carboxylic acid amide] | 100 to 1000 | < 100
7 | CC(=O)N1CCN(Cc2ccc(-c3nc4c(N[C@H]5[C@@H](C(N)=O)[C@@H]6C=C[C@H]5C6)c(Cl)cnc4[nH]3)cc2)CC1 [Compound CLVII, (1S,2S,3R,4R)-3-{2-[4-(4-Acetyl-piperazin-1-ylmethyl)-phenyl]-6-chloro-3H-imidazo[4,5-b]pyridin-7-ylamino}-bicyclo[2.2.1]hept-5-ene-2-carboxylic acid amide] | < 100 | < 100
8 | Cc1nc(C2CCN(CC(N)=O)CC2)sc1-c1nc2c(N[C@H]3[C@@H](C(N)=O)[C@@H]4C=C[C@H]3C4)c(Cl)cnc2[nH]1 [Compound LXV, (1S,2S,3R,4R)-3-{2-[2-(1-Carbamoylmethyl-piperidin-4-yl)-4-methyljj-thiazol-5-yl]-6-chloro-3H-imidazo[4,5-b]pyridine-7-ylamino}-bicyclo[2.2.1]hept-5-ene-2-carboxylic acid amide] | < 100 | < 100
9 | CN1CCC(Oc2ccc(-c3nc4c(N[C@H]5[C@@H](C(N)=O)[C@@H]6C=C[C@H]5C6)c(Cl)cnc4[nH]3)cc2)CC1 [Compound CCXLV, (1S,2S,3R,4R)-3-(6-chloro-2-(4-(1-methylpiperidin-4-yloxy)phenyl)-3H-imidazo[4,5-b]pyridin-7-ylamino)bicyclo[2.2.1]hept-5-ene-2-carboxamide] | < 100 | < 100
10 | NC(=O)[C@@H]1[C@H](Nc2c(Cl)cnc3[nH]c(-c4cccc(C(=O)NCC(=O)O)c4)nc23)[C@H]2C=C[C@@H]1C2 [Compound CCXXVII, 2-(3-(7-((1R,2R,3S,4S)-3-carbamoylbicyclo[2.2.1]hept-5-en-2-ylamino)-6-chloro-3H-imidazo[4,5-b]213yridine-2-yl)benzamido)acetic acid] | 1000 to 10000 | < 100
11 | COc1cc(N2CCC(N3CCN(C)CC3)CC2)ccc1-c1nc2c(N[C@@H]3CCCC[C@H]3NS(C)(=O)=O)c(Cl)cnc2[nH]1 [CCLIII] | < 100 | 1000 to 10000
12 | NC(=O)[C@@H]1[C@H](Nc2c(Cl)cnc3[nH]c(-c4cn5c(n4)CCCC5)nc23)[C@H]2C=C[C@@H]1C2 [Compound CCXIII, (1S,2S,3R,4R)-3-(6-chloro-2-(5,6,7,8-tetrahydroimidazo[1,2-a]pyridin-2-yl)-3H-imidazo[4,5-b]pyridin-7-ylamino)bicyclo[2.2.1]hept-5-ene-2-carboxamide] | 100 to 1000 | < 100
13 | O=C(NC1CC1)[C@@H]1[C@H](Nc2c(Cl)cnc3[nH]c(-c4sc(N5CC[C@@H](O)C5)nc4Cl)nc23)[C@H]2C=C[C@@H]1C2 [Compound CLXXIII, (1S,2S,3R,4R)-3-[6-Chloro-2-[4-chloro-2-((R)-3-hydroxy-pyrrolidin-1-yl)-thiazol-5-yl]-3H-imidazo[4,5-b]pyridin-7-ylamino]-bicyclo[2.2.1]hept-5-ene-2-carboxylic acid cyclopropylamide] | < 100 | 100 to 1000

Other lines, results leading:

Row | IC50 [1] [nM] | IC50 [2] [nM] | Structure (SMILES)
14 | < 100 | < 100 | COc1cc(CN(C)C)ccc1-c1nc2c(N[C@H]3[C@@H](C(N)=O)[C@@H]4C=C[C@H]3C4)c(Cl)cnc2[nH]1 [Compound XLVI, (1S,2S,3R,4R)-3-[6-Chloro-2-(4-dimethylaminomethyl-2-methoxyphenyl)-3H-imidazo[4,5-b]pyridine-7-ylamino)-bicyclo[2.2.1]hept-5-ene-2-carboxylic acid amide, trifluoroacetic acid salt]
15 | < 100 | < 100 | NC(=O)[C@@H]1[C@H](Nc2c(Br)cnc3[nH]c(-c4sc(N5CC[C@@H](O)C5)nc4Cl)nc23)[C@H]2C=C[C@@H]1C2 [Compound CLXXI, (1S,2S,3R,4R)-3-{6-Bromo-2-[4-chloro-2-((R)-3-hydroxy-pyrrolidin-1-yl)-thiazol-5-yl]-3H-imidazo[4,5-b]pyridin-7-ylamino}-bicyclo[2.2.1]hept-5-ene-2-carboxylic acid amide]
16 | < 100 | < 100 | NC(=O)[C@@H]1[C@H](Nc2c(Br)cnc3[nH]c(-c4ccccc4F)nc23)[C@H]2C=C[C@@H]1C2 [Compound CXXXI, (1S,2S,3R,4R)-3-[6-Bromo-2-(2-fluoro-phenyl)-3H-imidazo[4,5-b]pyridin-7-ylamino]-bicyclo[2.2.1]hept-5-ene-2-carboxylic acid amide]
17 | < 100 | 100 to 1000 | COc1cc(N2CCN(C)CC2)ccc1-c1nc2c(N[C@H]3[C@@H](C(=O)N(C)C)[C@@H]4C=C[C@H]3C4)c(Cl)cnc2[nH]1 [Compound CXCVII, (1S,2S,3R,4R)-3-(6-chloro-2-(2-methoxy-4-(4-methylpiperazin-1-yl)phenyl)-3H-imidazo[4,5-b]pyridin-7-ylamino)-N,N-dimethylbicyclo[2.2.1]hept-5-ene-2-carboxamide]
18 | < 100 | < 100 | CN1CCN(C(=O)c2ccc(-c3nc4c(N[C@H]5[C@@H](C(N)=O)[C@@H]6C=C[C@H]5C6)c(Cl)cnc4[nH]3)cc2)CC1 [Compound CCXXII, (1S,2S,3R,4R)-3-(6-chloro-2-(4-(4-methylpiperazine-1-carbonyl)phenyl)-3H-imidazo[4,5-b]pyridin-7-ylamino)bicyclo[2.2.1]hept-5-ene-2-carboxamide]
19 | < 100 | < 100 | COc1cc(CN2CCOCC2)ccc1Nc1nc2c(N[C@H]3[C@@H](C(N)=O)[C@@H]4C=C[C@H]3C4)c(Cl)cnc2[nH]1 [Compound LXIX, (1S,2S,3R,4R)-3-[6-Chloro-2-(2-methoxy-4-morpholin-4-ylmethyl-phenylamino)-3H-imidazo[4,5-b]pyridine-7-ylamino]-bicyclo[2.2.1]hept-5-ene-2-carboxylic acid amide]
20 | < 100 | < 100 | Cc1cc(N2CCOCC2)ccc1-c1nc2c(N[C@H]3[C@@H](C(N)=O)[C@@H]4C=C[C@H]3C4)c(Br)cnc2[nH]1 [Compound CXXX, (1S,2S,3R,4R)-3-[6-Bromo-2-(2-methyl-4-morpholin-4-yl-phenyl)-3H-imidazo[4,5-b]pyridin-7-ylamino]-bicyclo[2.2.1]hept-5-ene-2-carboxylic acid amide]
21 | < 100 | < 100 | NC(=O)[C@@H]1[C@H](Nc2c(Cl)cnc3[nH]c(-c4ccc(OCCN5CCOCC5)cc4)nc23)[C@H]2C=C[C@@H]1C2 [Compound CCXXXIX, (1S,2S,3R,4R)-3-(6-chloro-2-(4-(2-morpholinoethoxy)phenyl)-3H-imidazo[4,5-b]pyridin-7-ylamino)bicyclo[2.2.1]hept-5-ene-2-carboxamide]
